Test results: patent publication US8288548B2, “Oxazolo[5-4-b]pyridin-5-yl compounds” (Eli Lilly and Company, priority 2010, dated 2012)
Marks after values point to notes of the source that are not given here.

What was measured:
[1] = tested on: 786-O human renal cell carcinoma cells; assay: 786-O xenograft model in combination with sunitinib; assay type: in vivo, athymic nude mice; conditions: BID x 28
Experimental: Female athymic nude mice are obtained from Harlan Labs at a weight of 24-26 g. […] Tumor size is monitored by caliper measurement twice per week. […] The compound is dosed orally in a 0.2 mL volume of 1% HEC, 0.25% TWEEN® 80, 0.05% antifoam (HEC/TWEEN®). […] Tumor volume is monitored twice per week and efficacy (tumor growth inhibition) is compared relative to vehicle-treated control animals. […] Statistical assessment of synergy was performed using two-way repeated measures analysis of variance on log tumor volume vs. time.

[2] = tested on: A2780 human ovarian carcinoma cells; assay: A2780 xenograft model, tumor growth inhibition; assay type: in vivo, CD1 nu/nu mice; conditions: 4 day on, 3 d off
Experimental: (§1) Female CD1 nu/nu mice are obtained from Charles River Laboratories at approximately 22-25 g. After 1 week acclimation, 2×10^6 A2780 human ovarian carcinoma cells are injected subcutaneously in the rear flank of each mouse in a 0.2 mL volume in a 1:1 mixture of cell culture media and BD […]™ matrix. Tumor size is monitored by caliper measurement twice per week. When the average tumor size reaches 150 mm^3, animals are randomized into groups of 10. p38 MAP kinase inhibitor treatment is initiated after randomization. Example 2 is dosed orally in a 0.2 mL volume of 1% HEC, 0.25% TWEEN® 80, 0.05% antifoam (HEC/TWEEN®). The compound is dosed at doses of 1, 3, and 10 mg/kg. Dosing is performed three times per day (TID) on a schedule of 4 days on, 3 days off. Three cycles of dosing is performed. Tumor volume is monitored twice per week during the dosing period, and efficacy (tumor growth inhibition) is monitored relative to a vehicle control group (n=10 animals). At 1, 2 and 8 hours after the last p38 MAP kinase inhibitor dose, plasma is obtained from animals to determine the circulating levels of compound in the animals.

[3] = Plasma concentration after last dose in the A2780 xenograft model; assay type: in vivo, CD1 nu/nu mice
Experimental: as §1

OPM-2 cells = assay: OPM-2 multiple myeloma xenograft model; assay type: in vivo, CB-17 SCID mice; conditions: PO, BID
Experimental: Female CB-17 SCID mice are obtained from Taconic at 20-22 g weight. After acclimating for one week, mice are irradiated with a dose of 2.5 Gray. Within 24 hours following irradiation, mice are injected sub-cutaneously in the rear flank with 1.0×10^7 OPM-2 cells in a 0.2 mL volume in a 1:1 mixture of cell culture media and BD […]™ matrix. Tumor size is monitored by caliper measurement twice per week. When the tumor size reaches 100-150 mm^3, animals are randomized into dose groups. Compound treatment is initiated after randomization. Example 2 is dosed orally in a 0.2 mL volume of 1% HEC, 0.25% TWEEN® 80, 0.05% antifoam (HEC/TWEEN®). The compound is dosed at doses of 15 and 30 mg/kg. Dosing is performed two times per day (BID) for 28 days of treatment. Tumor volume is monitored twice per week during the dosing period, and efficacy (tumor growth inhibition) is monitored relative to a vehicle control group (n=10 animals).

In the case of `CCN(CC)CCNC(=O)c1c(C)[nH]c(/C=C2\C(=O)Nc3ccc(F)cc32)c1C` [Sunitinib], the “% Tumor Growth Inhibition” value ([1]; Sunitinib 10 mg/kg PO, Day 17) is reported as −1.6%, the “% Tumor Growth Inhibition” value ([1]; Sunitinib 10 mg/kg PO, Day 21) is reported as 2.9% and the “% Tumor Growth Inhibition” value ([1]; Sunitinib 10 mg/kg PO, Day 24) is reported as −16.3%. The “% Tumor Growth Inhibition” value ([1]; Sunitinib 10 mg/kg PO, Day 28) was −21.2%, the “% Tumor Growth Inhibition” value ([1]; Sunitinib 20 mg/kg PO, Day 17) was −55.9% and the “% Tumor Growth Inhibition” value ([1]; Sunitinib 20 mg/kg PO, Day 21) was 31.5%. For the same compound, the “% Tumor Growth Inhibition” value ([1]; Sunitinib 20 mg/kg PO, Day 24) was 18%, the “% Tumor Growth Inhibition” value ([1]; Sunitinib 20 mg/kg PO, Day 28) was 34.5% and the “% Tumor Growth Inhibition” value ([1]; Sunitinib 20 mg/kg PO, Day 31) was 35.4* %.
For `COCC[C@H](C)Nc1nc2ccc(-c3nc(C(C)(C)CO)[nH]c3-c3ccc(F)cc3F)nc2o1.Cl` [Example 3, 2-[5-(2,4-Difluorophenyl)-4-[2-[[(1S)-3-methoxy-1-methyl-propyl]amino]oxazolo[5,4-b]pyridin-5-yl]-1H-imidazol-2-yl]-2-methyl-propan-1-ol, hydrochloride], the “% Tumor Growth Inhibition” value ([1]; Example 3 15 mg/kg PO, Day 17) was −35.5%, the “% Tumor Growth Inhibition” value ([1]; Example 3 15 mg/kg PO, Day 21) was −23% and the “% Tumor Growth Inhibition” value ([1]; Example 3 15 mg/kg PO, Day 24) was −52.4%. For the same compound, the “% Tumor Growth Inhibition” value ([1]; Example 3 15 mg/kg PO, Day 28) was −74.1* % and the “% Tumor Growth Inhibition” value ([1]; Example 3 15 mg/kg PO, Day 31) was −58.8* %.
For “2-[5-(2,4-Difluorophenyl)-4-[2-[[(1S)-3-methoxy-1-methyl-propyl]amino]oxazolo[5,4-b]pyridin-5-yl]-1H-imidazol-2-yl]-2-methyl-propan-1-ol, methanesulfonate [Example 2]”, the “Tumor Growth Inhibition (%)” value ([2]; 1 mg/kg PO TID, Day 20) was 70.6%, the “Tumor Growth Inhibition (%)” value ([2]; 1 mg/kg PO TID, Day 23) was 76.6% and the “Tumor Growth Inhibition (%)” value ([2]; 1 mg/kg PO TID, Day 26) was 76%. The “Tumor Growth Inhibition (%)” value ([2]; 1 mg/kg PO TID, Day 29 (final)) was 78.3%, the “Tumor Growth Inhibition (%)” value ([2]; 3 mg/kg PO TID, Day 20) was 32.5% and the “Tumor Growth Inhibition (%)” value ([2]; 3 mg/kg PO TID, Day 23) was 47.7%. The “Tumor Growth Inhibition (%)” value ([2]; 3 mg/kg PO TID, Day 26) was 42.7%, the “Tumor Growth Inhibition (%)” value ([2]; 3 mg/kg PO TID, Day 29 (final)) was 37.7% and the “Tumor Growth Inhibition (%)” value ([2]; 10 mg/kg PO TID, Day 20) was 60%. For the same compound, the “Tumor Growth Inhibition (%)” value ([2]; 10 mg/kg PO TID, Day 23) was 71.2%, the “Tumor Growth Inhibition (%)” value ([2]; 10 mg/kg PO TID, Day 26) was 72.8% and the “Tumor Growth Inhibition (%)” value ([2]; 10 mg/kg PO TID, Day 29 (final)) was 74.8%. For the same compound, the “Mean Plasma Concentration (μM) at time (hour) post-last dose” value (from here on “Mean Plasma Concentration (μM) at time”) ([3]; 1 mg/kg PO TID, 1 hour post-last dose) was 0.0263 µM, the “Mean Plasma Concentration (μM) at time” value ([3]; 1 mg/kg PO TID, 2 hour post-last dose) was 0.0146 µM and the “Mean Plasma Concentration (μM) at time” value ([3]; 3 mg/kg PO TID, 1 hour post-last dose) was 0.0526 µM. The “Mean Plasma Concentration (μM) at time” value ([3]; 3 mg/kg PO TID, 2 hour post-last dose) was 0.0604 µM, the “Mean Plasma Concentration (μM) at time” value ([3]; 3 mg/kg PO TID, 3 hour post-last dose) was 0.0042 µM and the “Mean Plasma Concentration (μM) at time” value ([3]; 10 mg/kg PO TID, 1 hour post-last dose) was 0.4952 µM. For the same compound, the “Mean Plasma Concentration (μM) at time” value ([3]; 10 mg/kg PO TID, 2 hour post-last dose) was 0.3978 µM, the “Mean Plasma Concentration (μM) at time” value ([3]; 10 mg/kg PO TID, 3 hour post-last dose) was 0.0243 µM and the “Mean tumor size (mm3)” value (OPM-2 cells; 15 mpk, Day 4) was 101.69 mm3. For the same compound, the “Mean tumor size (mm3)” value (OPM-2 cells; 15 mpk, Day 8) was 87.96 mm3, the “Mean tumor size (mm3)” value (OPM-2 cells; 15 mpk, Day 11) was 104.9 mm3 and the “Mean tumor size (mm3)” value (OPM-2 cells; 15 mpk, Day 15) was 104.21 mm3. For the same compound, the “Mean tumor size (mm3)” value (OPM-2 cells; 15 mpk, Day 18) was 120.17 mm3, the “Mean tumor size (mm3)” value (OPM-2 cells; 15 mpk, Day 21) was 182.47 mm3 and the “Mean tumor size (mm3)” value (OPM-2 cells; 15 mpk, Day 25) was 169.53 mm3. For the same compound, the “Mean tumor size (mm3)” value (OPM-2 cells; 15 mpk, Day 29) was 214.28 mm3, the “Mean tumor size (mm3)” value (OPM-2 cells; 15 mpk, Day 33) was 326.29 mm3 and the “Mean tumor size (mm3)” value (OPM-2 cells; 15 mpk, Day 36) was 384.59 mm3. The “Mean tumor size (mm3)” value (OPM-2 cells; 15 mpk, Day 43) was 628.46 mm3, the “Mean tumor size (mm3)” value (OPM-2 cells; 15 mpk, Day 46) was 700.62 mm3 and the “Mean tumor size (mm3)” value (OPM-2 cells; 15 mpk, Day 49) was 937.29 mm3. For the same compound, the “Mean tumor size (mm3)” value (OPM-2 cells; 15 mpk, Day 53) was 1138.19 mm3, the “Mean tumor size (mm3)” value (OPM-2 cells; 30 mpk, Day 4) was 97.8 mm3 and the “Mean tumor size (mm3)” value (OPM-2 cells; 30 mpk, Day 8) was 90.78 mm3. The “Mean tumor size (mm3)” value (OPM-2 cells; 30 mpk, Day 11) was 118.46 mm3, the “Mean tumor size (mm3)” value (OPM-2 cells; 30 mpk, Day 15) was 95.34 mm3 and the “Mean tumor size (mm3)” value (OPM-2 cells; 30 mpk, Day 18) was 103.71 mm3. The “Mean tumor size (mm3)” value (OPM-2 cells; 30 mpk, Day 21) was 115.16 mm3, the “Mean tumor size (mm3)” value (OPM-2 cells; 30 mpk, Day 25) was 155.27 mm3 and the “Mean tumor size (mm3)” value (OPM-2 cells; 30 mpk, Day 29) was 154.83 mm3. The “Mean tumor size (mm3)” value (OPM-2 cells; 30 mpk, Day 33) was 224.14 mm3, the “Mean tumor size (mm3)” value (OPM-2 cells; 30 mpk, Day 36) was 243.32 mm3 and the “Mean tumor size (mm3)” value (OPM-2 cells; 30 mpk, Day 43) was 407.07 mm3. The “Mean tumor size (mm3)” value (OPM-2 cells; 30 mpk, Day 46) was 527.14 mm3, the “Mean tumor size (mm3)” value (OPM-2 cells; 30 mpk, Day 49) was 642.22 mm3 and the “Mean tumor size (mm3)” value (OPM-2 cells; 30 mpk, Day 53) was 812.48 mm3.
